Assay results from ChEMBL document CHEMBL3352575, “Synthesis, in vitro and in vivo antitumor activity of pyrazole-fused 23-hydroxybetulinic acid derivatives” (Bioorg Med Chem Lett, 2015).

Key:
Format in all cases: functional, cell-based
[1] = Antiproliferative activity against human Bel7402 cells after 72 hrs by MTT assay; details: Bel-7402, 72 h
[2] = Antiproliferative activity against human SF763 cells after 72 hrs by MTT assay; details: SF763, 72 h
HeLa = test: Antiproliferative activity against human HeLa cells after 72 hrs by MTT assay
B16 = test: Antiproliferative activity against mouse B16 cells after 72 hrs by MTT assay; details: B16, 72 h
[3] = Antiproliferative activity against human HL60 cells after 72 hrs by MTT assay; details: HL-60, 72 h

SMILES	IC50 (HeLa) [µM]	IC50 (B16) [µM]	IC50 [1] [µM]	IC50 [2] [µM]	IC50 [3] [µM]
COc1cccc2c1C(=O)c1c(O)c3c(c(O)c1C2=O)C[C@@](O)(C(=O)CO)C[C@@H]3O[C@H]1C[C@H](N)[C@H](O)[C@H](C)O1 [DOXORUBICIN]	–	–	0.22	–	–
C=C(C)[C@@H]1CC[C@]2(C(=O)N3CCOCC3)CC[C@]3(C)[C@H](CC[C@@H]4[C@@]5(C)Cc6c[nH]nc6[C@@](C)(CO)[C@@H]5CC[C@]43C)[C@@H]12	35.5	31.1	39.4	33.7	39
C=C(C)[C@@H]1CC[C@]2(C(=O)N3CCOCC3)CC[C@]3(C)[C@H](CC[C@@H]4[C@@]5(C)Cc6c[nH]nc6[C@@](C)(COC(C)=O)[C@@H]5CC[C@]43C)[C@@H]12	10	7.89	10.2	8.45	9.85
C=CCOC(=O)[C@]12CC[C@@H](C(=C)C)[C@@H]1[C@H]1CC[C@@H]3[C@@]4(C)Cc5cn(CC=C)nc5[C@@](C)(CO)[C@@H]4CC[C@@]3(C)[C@]1(C)CC2	32.1	24.9	38.8	25.3	33.4
C=CCOC(=O)[C@]12CC[C@@H](C(=C)C)[C@@H]1[C@H]1CC[C@@H]3[C@@]4(C)Cc5c[nH]nc5[C@@](C)(CO)[C@@H]4CC[C@@]3(C)[C@]1(C)CC2	19.5	18	17.8	18.7	24.3
C=C(C)[C@@H]1CC[C@]2(C(=O)OCC)CC[C@]3(C)[C@H](CC[C@@H]4[C@@]5(C)Cc6c[nH]nc6[C@@](C)(CO)[C@@H]5CC[C@]43C)[C@@H]12	16.2	16.1	15.2	13.3	21.1
C=C(C)[C@@H]1CC[C@]2(C(=O)OCc3ccccc3)CC[C@]3(C)[C@H](CC[C@@H]4[C@@]5(C)Cc6cn(CC)nc6[C@@](C)(CO)[C@@H]5CC[C@]43C)[C@@H]12	40	38.2	45.8	39.6	40.1
C=C(C)[C@@H]1CC[C@]2(C(=O)NCC(=O)O)CC[C@]3(C)[C@H](CC[C@@H]4[C@@]5(C)Cc6c[nH]nc6[C@@](C)(CO)[C@@H]5CC[C@]43C)[C@@H]12	32.7	30.8	36.1	27.4	34.9
C=C(C)[C@@H]1CC[C@]2(C(=O)OCC(=O)O)CC[C@]3(C)[C@H](CC[C@@H]4[C@@]5(C)Cc6cn(CC(=O)O)nc6[C@@](C)(CO)[C@@H]5CC[C@]43C)[C@@H]12	50	36	47.6	41.8	44.8
C=C(C)[C@@H]1CC[C@]2(C(=O)OCc3ccccc3)CC[C@]3(C)[C@H](CC[C@@H]4[C@@]5(C)Cc6cn(CC(=O)OCC)nc6[C@@](C)(CO)[C@@H]5CC[C@]43C)[C@@H]12	37	32.9	43	33	39.1
C=C(C)[C@@H]1CC[C@]2(C(=O)O)CC[C@]3(C)[C@H](CC[C@@H]4[C@@]5(C)Cc6c[nH]nc6[C@@](C)(CO)[C@@H]5CC[C@]43C)[C@@H]12	21.1	19.8	21	20.8	29.1
C=C(C)[C@@H]1CC[C@]2(C(=O)OCc3ccccc3)CC[C@]3(C)[C@H](CC[C@@H]4[C@@]5(C)Cc6c[nH]nc6[C@@](C)(CO)[C@@H]5CC[C@]43C)[C@@H]12	16.1	13	13.9	11.7	20.1
C=CCn1cc2c(n1)[C@@](C)(CO)[C@@H]1CC[C@]3(C)[C@H](CC[C@@H]4[C@H]5[C@H](C(=C)C)CC[C@]5(C(=O)OCc5ccccc5)CC[C@]43C)[C@@]1(C)C2	26.4	20.1	29.6	21.1	31.1
C=C(C)[C@@H]1CC[C@]2(C(=O)O[C@@H]3O[C@H](CO)[C@@H](O)[C@H](O)[C@H]3O)CC[C@]3(C)[C@H](CC[C@@H]4[C@@]5(C)Cc6c[nH]nc6[C@@](C)(COC(C)=O)[C@@H]5CC[C@]43C)[C@@H]12	20	18.9	14.1	20.1	28.5

Further lines, with some results ahead:

IC50 (HeLa) [µM]	IC50 (B16) [µM]	SMILES	IC50 [1] [µM]	IC50 [2] [µM]	IC50 [3] [µM]
24.2	19.4	C=C(C)[C@@H]1CC[C@]2(C(=O)OCC)CC[C@]3(C)[C@H](CC[C@@H]4[C@@]5(C)Cc6cn(CC)nc6[C@@](C)(COC(C)=O)[C@@H]5CC[C@]43C)[C@@H]12	30.2	19.4	28.1
40.4	35.7	C=C(C)[C@@H]1CC[C@]2(C(=O)OCC(=O)OCC)CC[C@]3(C)[C@H](CC[C@@H]4[C@@]5(C)Cc6cn(C(C)=O)nc6[C@@](C)(COC(C)=O)[C@@H]5CC[C@]43C)[C@@H]12	36	37.6	45.6
27.4	19.8	C=CCOC(=O)[C@]12CC[C@@H](C(=C)C)[C@@H]1[C@H]1CC[C@@H]3[C@@]4(C)Cc5cn(C(C)=O)nc5[C@@](C)(COC(C)=O)[C@@H]4CC[C@@]3(C)[C@]1(C)CC2	23.1	19.5	32.3
32.6	30.2	C=C(C)[C@@H]1CC[C@]2(C(=O)OCC)CC[C@]3(C)[C@H](CC[C@@H]4[C@@]5(C)Cc6cn(C(C)=O)nc6[C@@](C)(COC(C)=O)[C@@H]5CC[C@]43C)[C@@H]12	33.7	29.4	40.2
38.2	29.3	C=C(C)[C@@H]1CC[C@]2(C(=O)OCC(=O)OCC)CC[C@]3(C)[C@H](CC[C@@H]4[C@@]5(C)Cc6cn(CC(=O)OCC)nc6[C@@](C)(COC(C)=O)[C@@H]5CC[C@]43C)[C@@H]12	39.2	34	35.1
30.9	28	C=C(C)[C@@H]1CC[C@]2(C(=O)OCc3ccccc3)CC[C@]3(C)[C@H](CC[C@@H]4[C@@]5(C)Cc6cn(C(C)=O)nc6[C@@](C)(COC(C)=O)[C@@H]5CC[C@]43C)[C@@H]12	26.7	28.4	33.6
33.8	37.4	C=C(C)[C@@H]1CC[C@]2(C(=O)O)CC[C@]3(C)[C@H](CC[C@@H]4[C@@]5(C)Cc6cn(C(C)=O)nc6[C@@](C)(COC(C)=O)[C@@H]5CC[C@]43C)[C@@H]12	30.7	31.5	39.1
40.1	33.8	C=C(C)[C@@H]1CC[C@]2(C(=O)OCCO)CC[C@]3(C)[C@H](CC[C@@H]4[C@@]5(C)Cc6cn(C(C)=O)nc6[C@@](C)(COC(C)=O)[C@@H]5CC[C@]43C)[C@@H]12	34.4	32.1	43.2
59.9	39.7	C=C(C)[C@@H]1CC[C@]2(C(=O)O)CC[C@]3(C)[C@H](CC[C@@H]4[C@@]5(C)Cc6cn(CC(=O)O)nc6[C@@](C)(CO)[C@@H]5CC[C@]43C)[C@@H]12	50.2	30.2	46.3
17.8	15.3	C=C(C)[C@@H]1CC[C@]2(C(=O)O)CC[C@]3(C)[C@H](CC[C@@H]4[C@@]5(C)Cc6c[nH]nc6[C@@](C)(COC(C)=O)[C@@H]5CC[C@]43C)[C@@H]12	17.1	14.1	25.1
21.2	18.9	C=C(C)[C@@H]1CC[C@]2(C(=O)NCC(=O)OC)CC[C@]3(C)[C@H](CC[C@@H]4[C@@]5(C)Cc6c[nH]nc6[C@@](C)(COC(C)=O)[C@@H]5CC[C@]43C)[C@@H]12	19.3	17.7	20.9
58.8	42.4	C=C(C)[C@@H]1CC[C@]2(C(=O)O)CC[C@]3(C)[C@H](CC[C@@H]4[C@@]5(C)Cc6cn(CC)nc6[C@@](C)(CO)[C@@H]5CC[C@]43C)[C@@H]12	50.3	44.1	47
54.1	44.3	C=C(C)[C@@H]1CC[C@]2(C(=O)O)CC[C@]3(C)[C@H](CC[C@@H]4[C@@]5(C)Cc6cn(CCC)nc6[C@@](C)(CO)[C@@H]5CC[C@]43C)[C@@H]12	48	41	45.8
47.2	29.4	C=C(C)[C@@H]1CC[C@]2(C(=O)O)CC[C@]3(C)[C@H](CC[C@@H]4[C@@]5(C)Cc6cn(CC(=O)OCC)nc6[C@@](C)(CO)[C@@H]5CC[C@]43C)[C@@H]12	40.6	35.9	49.8
28	22.5	C=C(C)[C@@H]1CC[C@]2(C(=O)Oc3ccc(C#N)cc3)CC[C@]3(C)[C@H](CC[C@@H]4[C@@]5(C)Cc6cn(C(C)=O)nc6[C@@](C)(COC(C)=O)[C@@H]5CC[C@]43C)[C@@H]12	18.1	23.4	31.3
27.3	20.1	C=CCOC(=O)[C@]12CC[C@@H](C(=C)C)[C@@H]1[C@H]1CC[C@@H]3[C@@]4(C)Cc5cn(CC=C)nc5[C@@](C)(COC(C)=O)[C@@H]4CC[C@@]3(C)[C@]1(C)CC2	33.5	22	30.8
